# Measurements reported in patent US10316050B2, “PT (IV) complexes containing 4,4′-disubstituted-2,2′-bipyridyl and their use in cancer therapy” (THE BOARD OF REGENTS OF THE NEVADA SYSTEM OF HIGHER …, priority 2014, dated 2019).
# Where two headings read alike, the source gives them in different places.
# Tests used:
# Type in all cases: cell-based, human
# [1] = test system: SK-BR-3 breast cancer cells; assay: MTS cell viability assay, SK-BR-3; settings: for EC50: read-out: EC50 (effective concentration that resulted in 50% cell viability)
# Summary of the method: (§1)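 SK-BR-3 cells grown in MEM, DU145 and PC-3 cells in RPMI-1640, each with 10% FBS and 25 mM HEPES pH 7.4, plated 2 days to ~50% confluence. Exposure to increasing Pt complex or cisplatin/carboplatin concentrations for 1 h (washed, then 2 days recovery) or 48 h continuous. MTS absorbance at 490 nm after 4 h; viability as percent of control.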
# [2] = test system: MCF-7 breast cancer cells; assay: MTS cell viability assay, MCF-7; settings: for EC50: read-out: EC50 (effective concentration that resulted in 50% cell viability)
# Summary of the method: (§2)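 Viability by MTS colorimetry (A490, 4 h incubation) as % of solvent control, after 1 h pulse plus 2-day recovery or 48 h continuous drug exposure.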
# [3] = test system: PC-3 prostate cancer cells; assay: MTS cell viability assay, PC-3; settings: for EC50: read-out: EC50 (effective concentration that resulted in 50% cell viability)
# Summary of the method: as §1
# [4] = test system: A549 lung cancer cells; assay: MTS cell viability assay, A549; settings: for EC50: read-out: EC50 (effective concentration that resulted in 50% cell viability)
# Summary of the method: as §2
# [5] = test system: ZR-75-1 breast cancer cells; assay: MTS cell viability assay, ZR-75-1; settings: read-out: EC50 (effective concentration that resulted in 50% cell viability)
# Summary of the method: as §2
# [6] = test system: HCC38 breast cancer cells; assay: MTS cell viability assay, HCC38; settings: read-out: EC50 (effective concentration that resulted in 50% cell viability)
# Summary of the method: as §2
# [7] = test system: MDA-MB-231 breast cancer cells; assay: MTS cell viability assay, MDA-MB-231; settings: read-out: EC50 (effective concentration that resulted in 50% cell viability)
# Summary of the method: as §2
# [8] = test system: H520 lung cancer cells; assay: MTS cell viability assay, H520; settings: read-out: EC50 (effective concentration that resulted in 50% cell viability)
# Summary of the method: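 Two exposure schemes were used: a 1 h treatment followed by washing and 2 days' regrowth, and a 48 h continuous treatment. Viability was then measured colorimetrically with MTS reagent (4 h, 490 nm) relative to solvent controls.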
# [9] = test system: DU145 prostate cancer cells; settings: for EC50: read-out: EC50 (effective concentration that resulted in 50% cell viability)
# Summary of the method: as §1
# [10] = test system: T-47D breast cancer cells; assay: MTS cell viability assay, T-47D
# Summary of the method: as §2
# [11] = SK-BR-3, 1 h treatment, Table 3
# [12] = ZR-75-1, 1 h treatment, Table 3
# [13] = MDA-MB-231, 1 h treatment, Table 3
# [14] = 1 h treatment, Table 3, read-out: EC50 (effective concentration that resulted in 50% cell viability)
# [15] = 48 h, Table 5, read-out: EC50 (effective concentration that resulted in 50% cell viability)
molecule,measurement,setting,value
"CC(=O)[O][Pt]([Cl])([Cl])[O]C(C)=O.CCCCCOc1ccnc(-c2cc(OCCCCC)ccn2)c1 [Pt(IV)-5C, [Pt(IV)Cl2(OAc)2(4,4′-dipentoxy-2,2′-bipyridine)]]",EC50,[1]; [11],1.3 ± 0.6 µM
same,EC50,"[1]; SK-BR-3, 48 h, Table 5",0.3 ± 0.03 µM
same,EC50,"[2]; MCF-7, 1 h treatment, Table 3",2.9 ± 0.13 µM
same,EC50,"[2]; MCF-7, 48 h, Table 5",2 ± 0.1 µM
same,EC50,"[3]; PC-3, 1 h treatment, Table 3",1.7 ± 0.2 µM
same,EC50,"[3]; PC-3, 48 h, Table 5",0.5 ± 0.2 µM
same,EC50,"[4]; A549, 1 h treatment, Table 3",6.6 ± 0.3 µM
same,EC50,"[4]; A549, 48 h, Table 5",2.2 ± 0.1 µM
same,EC50,[5]; [12],1.6 ± 0.1 µM
same,EC50,"[5]; ZR-75-1, 48 h, Table 5",0.55 ± 0.07 µM
same,EC50,"[6]; HCC38, 1 h treatment, Table 3",3 ± 1 µM
same,EC50,"[6]; HCC38, 48 h, Table 5",2.1 ± 0.3 µM
same,EC50,[7]; [13],1.8 ± 0.1 µM
same,EC50,"[7]; MDA-MB-231, 48 h, Table 5",0.26 ± 0.01 µM
same,EC50,"[8]; H520, 1 h treatment, Table 3",3 ± 1 µM
same,EC50,"[8]; H520, 48 h, Table 5",1 ± 0.3 µM
same,EC50,"[9]; DU145, 1 h treatment, Table 3",1 ± 1 µM
same,EC50,"[9]; DU145, 48 h, Table 5",0.34 ± 0.02 µM
same,EC50,[10]; [14],2.3 ± 0.3 µM
same,EC50,[10]; [15],0.248 ± 0.001 µM
"[NH2][Pt]([NH2])([Cl])[Cl] [CDDP, Cisplatin, reference compound]",EC50,"[1]; SK-BR-3, 1 h treatment, Table 2",420 ± 80 µM
same,EC50,[1]; [11],420 ± 80 µM
same,EC50,"[1]; SK-BR-3, 48 h, Table 5",23 ± 8 µM
same,EC50,"[1]; SK-BR-3, 48 h treatment, Table 4",23 ± 6 µM
same,anti-proliferative activity compared to cisplatin (in words),"[1]; SK-BR-3, one and 48 hours treatment (FIG. 8G)",concentration dependent decreased in cell viability
same,EC50,"[2]; MCF-7, 1 h treatment, Table 2",900 ± 60 µM
same,EC50,"[2]; MCF-7, 1 h treatment, Table 3",900 ± 100 µM
same,EC50,"[2]; MCF-7, 48 h, Table 5",34 ± 1 µM
same,EC50,"[2]; MCF-7, 48 h treatment, Table 4",35 ± 1 µM
same,EC50,"[3]; PC-3, 1 h treatment, Table 2",200 ± 20 µM
same,EC50,"[3]; PC-3, 1 h treatment, Table 3",200 ± 20 µM
same,EC50,"[3]; PC-3, 48 h, Table 5",30 ± 1 µM
same,EC50,"[3]; PC-3, 48 h treatment, Table 4",30 ± 1 µM
same,anti-proliferative activity compared to cisplatin (in words),"[3]; PC-3, one and 48 hours treatment (FIG. 8I)",concentration dependent decreased in cell viability
same,EC50,"[4]; A549, 1 h treatment, Table 2",900 ± 200 µM
same,EC50,"[4]; A549, 1 h treatment, Table 3",900 ± 200 µM
same,EC50,"[4]; A549, 48 h, Table 5",500 ± 100 µM
same,EC50,"[4]; A549, 48 h treatment, Table 4",500 ± 100 µM
same,EC50,"[5]; ZR-75-1, 1 h treatment, Table 2",260 ± 10 µM
same,EC50,[5]; [12],260 ± 10 µM
same,EC50,"[5]; ZR-75-1, 48 h, Table 5",30 ± 8 µM
same,EC50,"[5]; ZR-75-1, 48 h treatment, Table 4",30 ± 8 µM
same,EC50,"[6]; HCC38, 1 h treatment, Table 2",300 ± 30 µM
same,EC50,"[6]; HCC38, 1 h treatment, Table 3",300 ± 30 µM
same,EC50,"[6]; HCC38, 48 h, Table 5",30 ± 8 µM
same,EC50,"[6]; HCC38, 48 h treatment, Table 4",30 ± 8 µM
same,EC50,"[7]; MDA-MB-231, 1 h treatment, Table 2",50 ± 4 µM
same,EC50,[7]; [13],50 ± 4 µM
same,EC50,"[7]; MDA-MB-231, 48 h, Table 5",21 ± 3 µM
same,EC50,"[7]; MDA-MB-231, 48 h treatment, Table 4",21 ± 3 µM
same,EC50,"[8]; H520, 1 h treatment, Table 2",200 ± 17 µM
same,EC50,"[8]; H520, 1 h treatment, Table 3",200 ± 17 µM
same,EC50,"[8]; H520, 48 h, Table 5",24 ± 2 µM
same,EC50,"[8]; H520, 48 h treatment, Table 4",24 ± 2 µM
same,effect on cell viability (in words),"[9]; DU145, 1 hour treatment (FIG. 8A, top), up to 1 mM carboplatin, 100 μM Pt(IV)-1C, 50 μM Pt(IV)-2C",concentration dependent decrease in cell viability
same,EC50,"[9]; DU145, 1 h treatment, Table 2",400 ± 100 µM
same,EC50,"[9]; DU145, 1 h treatment, Table 3",400 ± 100 µM
same,EC50,"[9]; DU145, 48 h, Table 5",64 ± 8 µM
same,EC50,"[9]; DU145, 48 h treatment, Table 4",64 ± 8 µM
same,anti-proliferative activity compared to cisplatin (in words),"[9]; DU145, one and 48 hours treatment (FIG. 8H)",concentration dependent decreased in cell viability
same,EC50,"[10]; 1 h treatment, Table 2, read-out: EC50 (effective concentration that resulted in 50% cell viability)",900 ± 100 µM
same,EC50,[10]; [14],900 ± 100 µM
same,EC50,[10]; [15],35 ± 6 µM
same,EC50,"[10]; 48 h treatment, Table 4, read-out: EC50 (effective concentration that resulted in 50% cell viability)",35 ± 6 µM
"[Pt(IV)Cl2(OAc)2(4,4′-dibutoxy-2,2′-bipyridine)] [Pt(IV)-4C]",EC50,[1]; [11],4 ± 0.7 µM
same,EC50,"[1]; SK-BR-3, 48 h, Table 5",0.44 ± 0.02 µM
same,effect on cell viability (in words),"[2]; MCF-7, 1 hour treatment, at the concentrations tested (FIG. 8F)",did not have any effect
same,EC50,"[2]; MCF-7, 1 h treatment, Table 3",> 25 µM
same,EC50,"[2]; MCF-7, 48 h, Table 5",2.2 ± 0.1 µM
same,EC50,"[3]; PC-3, 1 h treatment, Table 3",5 ± 3 µM
same,EC50,"[3]; PC-3, 48 h, Table 5",1.1 ± 0.4 µM
same,effect on cell viability (in words),"[4]; A549, 1 hour treatment, at the concentrations tested (FIG. 8E)",did not have any effect
same,EC50,"[4]; A549, 1 h treatment, Table 3",> 25 µM
same,EC50,"[4]; A549, 48 h, Table 5",14 ± 1 µM
same,EC50,[5]; [12],2.9 ± 0.3 µM
same,EC50,"[5]; ZR-75-1, 48 h, Table 5",0.7 ± 0.2 µM
same,EC50,"[6]; HCC38, 1 h treatment, Table 3",17 ± 3 µM
same,EC50,"[6]; HCC38, 48 h, Table 5",2.1 ± 0.2 µM
same,EC50,[7]; [13],2.8 ± 0.1 µM
same,EC50,"[7]; MDA-MB-231, 48 h, Table 5",1 ± 0.2 µM
same,EC50,"[8]; H520, 1 h treatment, Table 3",13 ± 5 µM
same,EC50,"[8]; H520, 48 h, Table 5",2.2 ± 0.1 µM
same,EC50,"[9]; DU145, 1 h treatment, Table 3",8 ± 7 µM
same,EC50,"[9]; DU145, 48 h, Table 5",0.9 ± 0.2 µM
same,EC50,[10]; [14],10 ± 1 µM
same,EC50,[10]; [15],0.33 ± 0.07 µM
